According to patent publication US10092537B2, “Use for PAI-1 inhibitor” (RENASCIENCE CO., LTD., priority 2013, dated 2018):
Where a name gives a salt, the structure may show the parent alone.

What follows are molecules tested against human PAI-1 (Homo sapiens, UniProt P05121) (assay: Measurement of PAI-1 inhibitory activity of compound group 1 (t-PA, Spectrozyme t-PA chromogenic substrate)). Details: read-out: PAI-1 activity %.
Chain of human PAI-1 (P05121 24-402): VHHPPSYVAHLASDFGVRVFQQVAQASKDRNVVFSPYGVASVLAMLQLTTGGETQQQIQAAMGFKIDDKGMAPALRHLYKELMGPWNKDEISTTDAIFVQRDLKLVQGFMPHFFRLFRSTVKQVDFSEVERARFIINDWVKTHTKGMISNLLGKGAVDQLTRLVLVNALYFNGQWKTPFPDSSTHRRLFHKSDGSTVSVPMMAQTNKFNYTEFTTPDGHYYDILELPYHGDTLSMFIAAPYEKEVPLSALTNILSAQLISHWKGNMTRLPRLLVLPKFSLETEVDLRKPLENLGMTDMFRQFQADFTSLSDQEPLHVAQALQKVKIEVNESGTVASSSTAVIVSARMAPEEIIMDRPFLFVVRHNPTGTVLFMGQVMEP
Protocol: Subsequently, human-derived tissue plasminogen activator (t-PA) (manufactured by American Diagnostica, Inc. (USA); the same applies hereinafter) adjusted to 0.05 pmol/μL was added thereto, and the mixture was further incubated at 37° C. for 60 minutes. Then, 0.25 mM of Spectrozyme t-PA synthetic substrate (manufactured by American Diagnostica, Inc. (USA); the same applies hereinafter), which is a chromogenic substrate, was added. The final mixture contained 50 mM Tris-HCl (pH 8), 150 mM NaCl, 1% DMSO, 0.1% PEG-6000, 0.2 mM CHAPS, 5 nM PAI-1, 2 nM t-PA, 0.2 mM Spectrozyme t-PA synthetic substrate, and each compound (10 μM or 2.5 μM).
Free radical p-nitroaniline removed from the chromogenic substrate (Spectrozyme t-PA) by t-PA action was measured using a spectrophotometer at an absorbance of 405 nm at 20-minute intervals, for 120 minutes.

Compound | activity at 2.5 µM | activity at 10 µM
O=C(O)c1cc(Cl)ccc1NC(=O)c1cc2cc(-c3ccccc3)ccc2n1CCCO [Example 60, 5-chloro-2-({[1-(3-hydroxypropyl)-5-phenyl-1H-indol-2-yl]carbonyl}amino)benzoic acid] | 25% | 0.9%
O=C(Cc1ccc(-c2ccccc2)cc1)Nc1ccc(Cl)cc1C(=O)O [Example 70, 2-[(biphenyl-4-ylacetyl)amino]-5-chlorobenzoic acid] | 94.6% | 4.4%
O=C(Nc1ccc(-c2ccccc2)cc1)Nc1ccc(Cl)cc1C(=O)O [Example 71, 2-[(biphenyl-4-ylcarbamoyl)amino]-5-chlorobenzoic acid] | 39.6% | 2.1%
O=C(CNC(c1ccccc1)c1ccccc1)Nc1ccc(Cl)cc1C(=O)O [Example 73, 5-chloro-2-{[N-(diphenylmethyl)glycyl]amino}benzoic acid] | 82.2% | 31.2%
Cc1sc(NC(=O)c2ccc(C3CCCCC3)cc2)c(C(=O)O)c1-c1ccccc1 [Example 74, 2-{[(4-cyclohexylphenyl)carbonyl]amino}-5-methyl-4-phenylthiophene-3-carboxylic acid] | 8.6% | 0.2%
O=C(CN1CCN(C(c2ccccc2)c2ccccc2)CC1)Nc1ccc(Cl)cc1C(=O)O [Example 77, 5-chloro-2-({[4-(diphenylmethyl)piperazin-1-yl]acetyl}amino)benzoic acid] | 89.6% | 19.3%
O=C(Nc1ccc(Cl)cc1C(=O)O)c1cccc(C2=CCCCC2)c1 [Example 79, 5-chloro-2-({[3-(cyclohex-1-en-1-yl)phenyl]carbonyl}amino)benzoic acid] | 44.5% | 1.6%
O=C(Nc1ccc(C2=CCCCC2)cc1C(=O)O)c1ccc(C2CCCCC2)cc1 [Example 81, 5-(cyclohex-1-en-1-yl)-2-{[(4-cyclohexylphenyl)carbonyl]amino}benzoic acid] | 1% | 0%
O=C(Nc1ccc(Cl)cc1C(=O)O)C1=CC2(CCCCC2)CCC1 [Example 84, 5-chloro-2-[(spiro[5.5]undec-1-en-2-ylcarbonyl)amino]benzoic acid] | 97% | 5.5%
Cc1ccc(C23CC4CC(CC(C(=O)Nc5ccc(Cl)cc5C(=O)O)(C4)C2)C3)cc1 [Example 86, 5-chloro-2-({[3-(4-methylphenyl)adamantan-1-yl]carbonyl}amino)benzoic acid] | 63.5% | 1.4%
O=C(/C=C(/Cl)C1CCCCC1)Nc1ccc(Cl)cc1C(=O)O [Example 91, 5-chloro-2-{[(2E)-3-chloro-3-cyclohexylprop-2-enoyl]amino}benzoic acid] | 96.9% | 16.7%
O=C(Nc1ccc(C#CC2CCCCC2)cc1C(=O)O)c1ccc(C2CCCCC2)cc1 [Example 92, 5-(cyclohexylethynyl)-2-{[(4-cyclohexylphenyl)carbonyl]amino}benzoic acid] | 0% | 0.4%
O=C(Nc1ccc(CCC2CCCCC2)cc1C(=O)O)c1ccc(C2CCCCC2)cc1 [Example 93, 5-(2-cyclohexylethyl)-2-{[(4-cyclohexylphenyl)carbonyl]amino}benzoic acid] | 0% | 0%
O=C(C#Cc1ccc(C23CC4CC(CC(C4)C2)C3)cc1)Nc1ccc(Cl)cc1C(=O)O [Example 94, 2-({3-[4-(adamantan-1-yl)phenyl]prop-2-ynoyl}amino)-5-chlorobenzoic acid] | 3.5% | 7.4%
O=C(Nc1ccc(Cl)cc1C(=O)O)c1ccc(CC23CC4CC(CC(C4)C2)C3)cc1 [Example 96, 2-({[4-(adamantan-1-ylmethyl)phenyl]carbonyl}amino)-5-chlorobenzoic acid] | 23.9% | 5%
O=C(Nc1ccc(Cl)cc1C(=O)O)c1ccc(C(O)C23CC4CC(CC(C4)C2)C3)cc1 (stereo not drawn) [Example 97, 2-[({4-[adamantan-1-yl(hydroxy)methyl]phenyl}carbonyl)amino]-5-chlorobenzoic acid] | 89.9% | 0.7%

Results, then the molecule that gave them:

activity at 2.5 µM | activity at 10 µM | Compound
38.6% | 0.2% | O=C(Nc1ccc(Cl)cc1C(=O)O)C(=O)c1c[nH]c2ccc(OCc3ccccc3)cc12 [Example 57, 2-({[5-(benzyloxy)-1H-indol-3-yl](oxo)acetyl}amino)-5-chlorobenzoic acid]
0% | 0% | O=C(Nc1ccc(Cl)cc1C(=O)O)c1cccc(-c2cccc3ccccc23)c1 [Example 58, 5-chloro-2-({[3-(naphthalen-1-yl)phenyl]carbonyl}amino)benzoic acid]
56.3% | 1.4% | O=C(CCOc1ccc(C23CC4CC(CC(C4)C2)C3)cc1)Nc1ccc(Cl)cc1C(=O)O [Example 59, 2-({3-[4-(adamantan-1-yl)phenoxy]propanoyl}amino)-5-chlorobenzoic acid]
92.4% | 38.9% | COc1ccccc1-c1cccc(OCC(=O)Nc2ccc(Cl)cc2C(=O)O)c1 [Example 61, 5-chloro-2-({[(2′-methoxybiphenyl-3-yl)oxy]acetyl}amino)benzoic acid]
29.1% | 0.6% | O=C(Nc1ccc(Cl)cc1C(=O)O)c1cccc(C23CC4CC(CC(C4)C2)C3)c1 [Example 62, 2-({[3-(adamantan-1-yl)phenyl]carbonyl}amino)-5-chlorobenzoic acid]
44.7% | 0.6% | O=C(Nc1ccc(Cl)cc1C(=O)O)c1ccc(C2CCCCC2)cc1 [Example 69, 5-chloro-2-{[(4-cyclohexylphenyl)carbonyl]amino}benzoic acid]
31.1% | 3.6% | Cc1ccc(-c2ccc(F)cc2)cc1NCC(=O)Nc1ccc(Cl)cc1C(=O)O [Example 72, 5-chloro-2-{[N-(4′-fluoro-4-methylbiphenyl-3-yl)glycyl]amino}benzoic acid]
86.4% | 4.7% | O=C(O)c1cc(Cl)ccc1NC(=O)N1CCN(C(c2ccccc2)c2ccccc2)CC1 [Example 75, 5-chloro-2-({[4-(diphenylmethyl)piperazin-1-yl]carbonyl}amino)benzoic acid hydrochloride]
92.9% | 30.6% | O=C(COC(c1ccccc1)c1ccccc1)Nc1ccc(Cl)cc1C(=O)O [Example 76, 5-chloro-2-{[(diphenylmethoxy)acetyl]amino}benzoic acid]
25.3% | 0.3% | O=C(/C=C/c1ccc(-c2ccccc2)cc1)Nc1ccc(Cl)cc1C(=O)O [Example 78, 2-{[(2E)-3-(biphenyl-4-yl)prop-2-enoyl]amino}-5-chlorobenzoic acid]
45.5% | 0% | O=C(Nc1ccc(Cl)cc1C(=O)O)c1cccc(C2CCCCC2)c1 [Example 80, 5-chloro-2-{[(3-cyclohexylphenyl)carbonyl]amino}benzoic acid]
1.7% | 1.4% | O=C(Nc1ccc(C2CCCCC2)cc1C(=O)O)c1ccc(C2CCCCC2)cc1 [Example 82, 5-cyclohexyl-2-{[(4-cyclohexylphenyl)carbonyl]amino}benzoic acid]
99.1% | 26.6% | O=C(Nc1ccc(Cl)cc1C(=O)O)c1ccc(N2CCCC2)cc1 [Example 83, 5-chloro-2-({[4-(pyrrolidin-1-yl)phenyl]carbonyl}amino)benzoic acid hydrochloride]
97.5% | 11% | O=C(O)c1cc(Cl)ccc1NC(=O)C1CCCC2(CCCCC2)C1 (stereo not drawn) [Example 85, 5-chloro-2-[(spiro[5.5]undec-2-ylcarbonyl)amino]benzoic acid]
20.5% | 1.2% | O=C(Nc1ccc(Cl)cc1C(=O)O)c1cccc(C#CC2CCCCC2)c1 [Example 87, 5-chloro-2-({[3-(cyclohexylethynyl)phenyl]carbonyl}amino)benzoic acid]
35.5% | 0.8% | O=C(Nc1ccc(Cl)cc1C(=O)O)c1ccc(C#CC2CCCCC2)cc1 [Example 88, 5-chloro-2-({[4-(cyclohexylethynyl)phenyl]carbonyl}amino)benzoic acid]
60.7% | 0.1% | O=C(/C=C/c1cccc(-c2ccccc2)c1)Nc1ccc(Cl)cc1C(=O)O [Example 89, 2-{[(2E)-3-(biphenyl-3-yl)prop-2-enoyl]amino}-5-chlorobenzoic acid]
65.3% | 0.1% | O=C(/C=C/c1cccc(C2=CCCCC2)c1)Nc1ccc(Cl)cc1C(=O)O [Example 90, 5-chloro-2-({(2E)-3-[3-(cyclohex-1-en-1-yl)phenyl]prop-2-enoyl}amino)benzoic acid]
80.5% | 0.3% | C#Cc1ccc(NC(=O)c2ccc(C3CCCCC3)cc2)c(C(=O)O)c1 [Example 95, 2-{[(4-cyclohexylphenyl)carbonyl]amino}-5-ethynylbenzoic acid]
41.5% | 0.1% | CC1(c2ccc(C(=O)Nc3ccc(Cl)cc3C(=O)O)cc2)CCCCC1 [Example 98, 5-chloro-2-({[4-(1-methylcyclohexyl)phenyl]carbonyl}amino)benzoic acid]
87.8% | 0.3% | O=C(Nc1ccc(Cl)cc1C(=O)O)c1cccc(OCc2ccc3ccccc3n2)c1 [Example 99, sodium 5-chloro-2-({[3-(quinolin-2-ylmethoxy)phenyl]carbonyl}amino)benzoate]
92.1% | 0.7% | O=C(Nc1ccc(Cl)cc1C(=O)O)c1ccc(OCc2ccc3ccccc3n2)cc1 [Example 100, sodium 5-chloro-2-({[4-(quinolin-2-ylmethoxy)phenyl]carbonyl}amino)benzoate]
24.7% | 0.2% | O=C(/C=C/c1cccc(-c2cccc3cccnc23)c1)Nc1ccc(Cl)cc1C(=O)O [Example 101, sodium 5-chloro-2-({(2E)-3-[3-(quinolin-8-yl)phenyl]prop-2-enoyl}amino)benzoate]
